# From patent US4637901A, “N-(alpha-haloacyl)-N-hydrocarbyl carbamoyl halides” (priority 1985, dated 1987)
# What was measured:
# Assay type in all cases: in vivo
# [1] = system: certain mites and insects including the Bean Aphid, Southern Army Worm, Mexican Bean Beetle and house fly; assay: Pesticidal activity against certain mites and insects (overall comparison); conditions: for activity in words (comparison as set forth in Table I): prior art derivatives compared with derivatives of the invention
# Method: A comparision of an oxime derivative of the novel compounds of this invention was evaluated to determine its pesticidal activity against certain mites and insects including the Bean Aphid, Southern Army Worm, Mexican Bean Beetle and house fly. The oxime derivative was also compared with typical derivative of this oxime as disclosed in British Pat. No. 1,226,450.
# (§1) Suspensions of the test compounds were prepared by dissolving one gram of compound in 50 milliliters of acetone in which had been dissolved 0.1 gram (10 percent of the weight of compound) of an alkylphenoxy polyethoxyethanol surfactant, as an emulsifying or dispersing agent. The resulting solution was mixed into 150 milliliters of water to give roughly 200 milliliters of a suspension containing the compound in finely divided form. The thus-prepared stock suspension contained 0.5 percent by weight of compound.
# (§2) Certain of the test compounds were also prepared by dissolving 375 mg of compound in 7.5 ml of dimethylformamide. Fifteen ml of acetone containing 37.5 mg (10 percent of the weight of test compound) of an alkylphenoxy polyethoxyethanol surfactant, as a wetting/emulsifying/dispersing agent was added to the dimethylformamide solution. Fifty-two and a half ml of water was mixed into the dimethylformamide-acetone mixture to give roughly 75 ml of a suspension containing the compound in solution or in finely divided form. The thus prepared stock suspension contained 0.5 percent by weight of compound. The test concentrations in parts per million by weight employed in the tests described hereinbelow were obtained by appropriate dilutions of the stock suspension with water.
# [2] = system: House Fly (Musca domestica, L.); assay: Fly Bait Test; conditions: 24 h, adult flies, sugar bait, twenty-four hours, read-out: Biological activity (LD50 in ppm), House Fly
# Method: as §1
# as §2, with “water. The test procedures were as follows:” for “water.”
# Four to six day old adult house flies (Musca domestica, L.), reared according to the specifications of the Chemical Specialties Manufacturing Association (Blue Book, McNair-Dorland Co., N.Y. 1954; pages 243-244, 261) under controlled conditions of 80°±5° F. and 50±5 percent relative humidity, were the test insects. The flies were immobilized by anesthetizing with carbon dioxide and twenty-five immobilized individuals, males and females, were transferred to a cage consisting of a standard food strainer about five inches in diameter which was inverted over a wrapping-paper-covered surface. […]
# [3] = system: Bean Aphid (Aphis fabae Scop.); assay: Bean Aphid Foliage Spray Test; conditions: foliar, potted dwarf nasturtium plants, 24 hour holding period, read-out: Biological activity (LD50 in ppm), Bean Aphid
# Method: as §1
# as §2, with “water. The test procedures were as follows:” for “water.”
# Bean Aphid Foliage Spray Test
# Adults and nymphal stages of the bean aphid (Aphis fabae Scop.) reared on potted dwarf nasturtrium plants at 68°-70° F. and 50±5 percent relative humidity, constituted the test insects. For testing purposes, the number of aphids per pot was standardized to 100-150 by trimming plants containing excess aphids. […]
# The potted plants (one pot per compound tested) infested with 100-150 aphids were placed on a revolving turntable and sprayed with 100-110 milliliters of test compound formulation by use of a DeVilbiss spray gun set at 40 psig air pressure. […] Percent mortality was recorded for various concentration levels.
# [4] = system: Mexican Bean Beetle (Epilachna varivestis, Muls.) larvae; assay: Mexican Bean Beetle Leaf Spray Test; conditions: 120 h, five days, read-out: Biological activity (LD50 in ppm), Mexican Bean Beetle
# Method: as §1
# as §2, with “water. The test procedures were as follows:” for “water.”
# Mexican Bean Beetle Leaf Spray Test
# Fourth instar larvae of the Mexican bean beetle (Epilachna varivestis, Muls.), reared on Tendergreen bean plants at a temperature of 80°±5° F. and 50±5 percent relative humidity, were the test insects.
# For certain of the tests second instar larvae (weighing about 6 mg) of the Mexican bean beetle (Epilachna varvestis, Muls), reared on Seiva Pole lima bean plants at a temperature of 80°±5° F. and […] relative humidity, were the test insects.
# The test compounds were formulated by diluting the stock suspension with water to give a suspension containing 500 parts of test compound per million parts of final formulation. […]
# [5] = system: Southern Armyworm (Spodoptera eridania, (Cram.)) larvae; assay: Southern Armyworm Leaf Spray Bait Test; conditions: 120 h, five days, read-out: Biological activity (LD50 in ppm), Southern Army Worm
# Method: as §1
# as §2, with “water. The test procedures were as follows:” for “water.”
# Southern Armyworm Leaf Spray Bait Test
# Larvae of the southern armyworm (Spodoptera eridania, (Cram.)), reared on Tendergreen bean plants at a temperature of 80°±5° F. and a relative humidity of 50±5 percent, constituted the test insects.
# The test compounds were formulated by diluting the stock suspension with water to give a suspension containing 500 parts of test compound per million parts of final formulation. Potted Tendergreen bean plants of standard height and age were placed on a revolving turntable and sprayed with 100-110 milliliters of test compound formulation by use of a DeVilbiss spray gun set at 40 psig air pressure. This application, which lasted 25 seconds, was sufficient to wet plants to run-off. […] Percent mortality was recorded for various concentration levels.
Compound,pesticidal properties (in words) ([1]; trimethyl amine salt of the N-haloacylcarbamate),LC50 [2],LC50 [3],activity in words (comparison as set forth in Table I) [1],LC50 [4],LC50 [5]
COC(=O)Nc1ccc(OC(=O)N(C)C(=O)C[N+](C)(C)C)cc1C(C)C,excellent pesticidal properties,–,–,–,–,–
CSC(C)=NOC(=O)N(C)C(=O)CCCCl [(XIVa)],–,25 µg/mL,37 µg/mL,less active or inactive,310 µg/mL,310 µg/mL
CSC(C)=NOC(=O)N(C)C(=O)CCl [(XII)],–,6 µg/mL,16 µg/mL,–,35 µg/mL,20 µg/mL
CCC(=O)N(C)C(=O)ON=C(C)SC [(XIVb)],–,500 µg/mL,500 µg/mL,less active or inactive,200 µg/mL,60 µg/mL
